From publication PMC8800119 (The Journal of Biological Chemistry, 2022)

Biological target: T1, glutaminase C (GAC) (Homo sapiens, UniProt O94925, Y466W)
T1 sequence (O94925 72-550 Y466W): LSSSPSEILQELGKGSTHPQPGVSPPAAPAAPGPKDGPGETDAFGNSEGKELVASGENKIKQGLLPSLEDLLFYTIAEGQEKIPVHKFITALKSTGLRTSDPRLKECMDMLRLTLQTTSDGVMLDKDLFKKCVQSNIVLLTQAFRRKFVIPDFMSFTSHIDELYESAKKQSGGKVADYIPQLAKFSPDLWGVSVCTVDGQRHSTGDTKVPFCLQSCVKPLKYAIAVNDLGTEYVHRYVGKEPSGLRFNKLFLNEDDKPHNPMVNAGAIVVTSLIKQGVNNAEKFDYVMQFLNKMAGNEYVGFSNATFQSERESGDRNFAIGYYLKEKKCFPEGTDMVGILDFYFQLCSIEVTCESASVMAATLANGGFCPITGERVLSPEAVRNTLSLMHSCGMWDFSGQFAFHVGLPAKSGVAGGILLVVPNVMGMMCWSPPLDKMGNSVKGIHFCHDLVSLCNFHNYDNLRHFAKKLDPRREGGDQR
Experiment: Trp466 fluorescence titration of phosphate at […] glutamine
Type: binding

O=P(O)(O)O [inorganic phosphate]
Kd: 8.5 ± 1.9 mM
